The supplement of paper PMC11061612

Assays:
Experiment in all cases: Bliss excess, mean over the matrix (fraction); higher = more synergy
BT-20 (Breast Carcinoma) = system: BT-20 (Breast Carcinoma)
In short: (§1)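 Cell lines grown in DMEM/F12 or RPMI with 10% FBS were plated in 1536-well plates and held 24 hours at 37°C, 5% CO2 before 72 hours of exposure to two-drug dose matrices, with DMSO typically at 0.2%. CellTiter-Glo 2.0 luminescence gave viability, which was converted to inhibition. Vehicle wells were set to 0 and blank wells to 1. Combination Emax is the second-highest inhibition in the matrix, and Bliss excess is the observed combination effect minus the expected EA + EB − EA·EB, where EA and EB are the single-agent effects.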

[1] = system: OCUB-M (Breast Carcinoma)
In short: as §1

[2] = system: DG-75 (Burkitt's Lymphoma)
In short: as §1

[3] = system: SCC-9 (Oral Cavity Carcinoma)
In short: as §1

[4] = system: SNU-C1 (Colorectal Carcinoma)
In short: as §1

[5] = system: NCI-H2405 (Lung Adenocarcinoma)
In short: as §1

[6] = system: NCI-H513 (Other Solid Carcinomas)
In short: as §1

IMR-5 (Neuroblastoma) = system: IMR-5 (Neuroblastoma)
In short: as §1

[7] = system: NCI-H2347 (Lung Adenocarcinoma)
In short: as §1

NH-12 (Neuroblastoma) = system: NH-12 (Neuroblastoma)
In short: as §1

[8] = system: EMC-BAC-2 (Non-Small Cell Lung Carcinoma)
In short: as §1

EW-18 (Ewing's Sarcoma) = system: EW-18 (Ewing's Sarcoma)
In short: as §1

[9] = system: TGBC11TKB (Gastric Carcinoma)
In short: as §1

[10] = system: KYSE-150 (Esophageal Squamous Cell Carcinoma)
In short: as §1

[11] = system: HuP-T3 (Pancreatic Carcinoma)
In short: as §1

U-87-MG (Glioblastoma) = system: U-87-MG (Glioblastoma)
In short: as §1

[12] = system: NCI-H322M (Lung Adenocarcinoma)
In short: as §1

[13] = system: HSC-2 (Oral Cavity Carcinoma)
In short: as §1

A704 (Kidney Carcinoma) = system: A704 (Kidney Carcinoma)
In short: as §1

RPMI-7951 (Melanoma) = system: RPMI-7951 (Melanoma)
In short: as §1

Structure (SMILES) | Bliss excess (BT-20 (Breast Carcinoma)) | Bliss excess [1] | Bliss excess [2] | Bliss excess [3] | Bliss excess [4] | Bliss excess [5] | Bliss excess [6] | Bliss excess (IMR-5 (Neuroblastoma)) | Bliss excess [7] | Bliss excess (NH-12 (Neuroblastoma)) | Bliss excess [8] | Bliss excess (EW-18 (Ewing's Sarcoma)) | Bliss excess [9] | Bliss excess [10] | Bliss excess [11] | Bliss excess (U-87-MG (Glioblastoma)) | Bliss excess [12] | Bliss excess [13] | Bliss excess (A704 (Kidney Carcinoma)) | Bliss excess (RPMI-7951 (Melanoma))
COc1cccc(OCCCN)c1-c1cc(Nc2cnc(C#N)cn2)n[nH]1 [Prexasertib] + CCc1c2c(nc3ccc(O)cc13)-c1cc3c(c(=O)n1C2)COC(=O)[C@]3(O)CC [SN-38] (first compound max 1 µM, 7x7, partner max 0.3 µM) | 0.0673 | 0.258 | 0.0019 | 0.0405 | -0.0179 | -0.058 | -0.0068 | -0.011 | 0.0217 | -0.078 | -0.0767 | -0.0728 | 0.0252 | 0.135 | 0.0335 | -0.092 | -0.0161 | -0.0507 | -0.0496 | -0.0265
NC1(C(=O)N[C@@H](CCO)c2ccc(Cl)cc2)CCN(c2ncnc3[nH]ccc23)CC1 [Capivasertib] + CC(=O)c1c(C)c2cnc(Nc3ccc(N4CCNCC4)cn3)nc2n(C2CCCC2)c1=O [Palbociclib] (first compound max 10 µM, 7x7, partner max 10 µM) | -0.0038 | -0.0127 | 0.0406 | 0.0004 | -0.0506 | -0.0405 | -0.0061 | 0.0514 | -0.0459 | 0.0124 | -0.0727 | -0.0276 | -0.0358 | 0.0446 | -0.0457 | -0.0097 | 0.0072 | -0.0207 | -0.0413 | 0.0186
COc1nnc2ccc(N3CCC(c4ccc(OCCN5CCN(C)C(=O)[C@H]5C)cc4)CC3)nn12 [AZD5153] + CC1(C)CCC(CN2CCN(c3ccc(C(=O)NS(=O)(=O)c4ccc(NCC5CCOCC5)c([N+](=O)[O-])c4)c(Oc4cnc5[nH]ccc5c4)c3)CC2)=C(c2ccc(Cl)cc2)C1 [Venetoclax] (first compound max 1 µM, 7x7, partner max 1 µM) | -0.071 | -0.0299 | -0.063 | -0.0478 | -0.061 | -0.0484 | -0.086 | -0.0119 | -0.11 | -0.0333 | -0.101 | -0.0371 | -0.0783 | 0.0061 | -0.102 | -0.0343 | -0.076 | -0.0196 | -0.0016 | -0.0292
CN(CCO)CC[C@H](CSc1ccccc1)Nc1ccc(S(=O)(=O)NC(=O)c2ccc(N3CCC([C@@H](O)c4ccccc4-c4ccc(Cl)cc4)CC3)cc2)cc1S(=O)(=O)C(F)(F)F [AZD4320] + CN(C)CCCOc1ccc(-c2ccc3ncc4c(c3c2)n(C2CCOCC2)c(=O)n4C)cn1 [AZD0156] (first compound max 1 µM, 7x7, partner max 1 µM) | 0.0323 | 0.0044 | -0.0183 | -0.0423 | -0.0283 | -0.0378 | -0.0484 | 0.0284 | -0.0378 | -0.0565 | -0.0683 | 0.0042 | -0.0242 | -0.0392 | -0.0429 | -0.0331 | -0.0432 | -0.0242 | -0.0411 | 0.0046
CN(CCO)CC[C@H](CSc1ccccc1)Nc1ccc(S(=O)(=O)NC(=O)c2ccc(N3CCC([C@@H](O)c4ccccc4-c4ccc(Cl)cc4)CC3)cc2)cc1S(=O)(=O)C(F)(F)F [AZD4320] + Cc1cc2ncnn2cc1Nc1ncc2c(n1)n(C1CCOCC1)c(=O)n2C [AZD7648] (first compound max 1 µM, 7x7, partner max 10 µM) | 0.0391 | 0.0104 | 0.0021 | -0.0121 | -0.0376 | -0.0351 | -0.0438 | 0.0335 | -0.0312 | -0.0248 | -0.0482 | -0.0372 | 0.0075 | -0.0396 | -0.0362 | -0.0503 | -0.0426 | 0.0257 | -0.0394 | -0.0109
Cn1cnc2c(F)c(Nc3ccc(Br)cc3Cl)c(C(=O)NOCCO)cc21 [Selumetinib] + C[C@@H]1COCCN1C2=NC(=NC(=C2)C3(CC3)[S@](=N)(=O)C)C4=C5C=CNC5=NC=C4 [AZD6738] (first compound max 10 µM, 7x7, partner max 10 µM) | 0.0733 | -0.0604 | -0.0328 | -0.0302 | -0.0453 | 0.0971 | 0.0555 | 0.0151 | 0.0844 | 0.0315 | 0.0202 | -0.0471 | 0.0232 | 0.0348 | 0.048 | 0.0075 | -0.0415 | -0.0553 | -0.039 | 0.0239
CC1(C)CCC(CN2CCN(c3ccc(C(=O)NS(=O)(=O)c4ccc(NCC5CCOCC5)c([N+](=O)[O-])c4)c(Oc4cnc5[nH]ccc5c4)c3)CC2)=C(c2ccc(Cl)cc2)C1 [Venetoclax] + CN(C)CCCOc1ccc(-c2ccc3ncc4c(c3c2)n(C2CCOCC2)c(=O)n4C)cn1 [AZD0156] (first compound max 1 µM, 7x7, partner max 1 µM) | -0.0163 | 0.0289 | -0.0123 | -0.0351 | -0.051 | -0.0324 | -0.0142 | -0.0087 | -0.0488 | -0.0978 | -0.0593 | 0.0697 | -0.0022 | -0.0356 | -0.0925 | -0.0163 | -0.0103 | 0.0307 | -0.0717 | 0
